In patent US20030162759A1, “Aldosterone blocker therapy to prevent or treat inflammation-related disorders” (priority 2000, published 2003):
Where “and” joins values, the source holds several entries; their conditions need not be identical. Identical values can stand only once.

How the values were obtained:
Format in all cases: in vivo, rat
[1] = tested on: Collagen I; assay: Assay C: Collagen I mRNA in left ventricle (TaqMan); conditions: for Collagen type-I message: 30 days, compared to vehicle+salt controls; for Collagen-I mRNA: individual rats
Procedure: The procedure of Assay B was expanded upon in a further study. […] Myocardial tissue from animals in each treatment group was examined after 7, 14, or 30 days of treatment.
(§1) Potassium chloride supplementation was added to the saline solution in order to prevent the potential hypokalemia associated with aldosterone excess.
(§2) At the time of the surgery, an Alzet 2002 osmotic minipump (Alza Corp., Palo Alto, Calif.) containing either vehicle (9% ethanol/87% propylene glycol/4% dH2O) or 1.0 mg/mL d-aldosterone (Sigma Chemical, St. Louis, Mo.) was inserted subcutaneously at the nape of the neck. Aldosterone was administered at a dose of 0.75 g/hour. […] Animals were sacrificed from each group (n=8-13) after 7, 14, or 30 days of treatment.
Following exsanguination, hearts and kidneys were isolated, removed, rinsed in cold phosphate-buffered saline, and blotted dry. Kidneys were immediately bifurcated through the long axis with a razor blade and placed in 10% neutral buffered formalin (NBF, Richard-Allen Scientific, Kalamazoo, Mich.). For the hearts, the right ventricle (RV) was cut away from the left ventricle (LV), both ventricles were weighed using a Mettler AE163 balance (Mettler-Toledo, Inc., Hightstown, N.J.), and the RV was placed in 10% NBF. A 2 mm coronal slab of the LV apex was removed and frozen with dry ice/isopentane for analysis of gene expression and the remaining portion of the LV was placed in 10% NBF for fixation. Final wet trimming was completed after 3-4 days fixation where a second 2 mm coronal slab was removed for hydroxyproline analysis and a third 2 mm slab was removed from the equatorial region for histology.
The fluorogenic 5′-nuclease assay (TaqMan PCR) using Applied Biosystems' 7700 Sequence Detection System (Applied Biosystems, Foster City, Calif.) allowed for real time detection/quantitation of a specific gene by monitoring the increase in fluorescence of a gene-specific, dye-labeled oligonucleotide probe. Probes for target and reference genes were labeled at the 5′-end with a 6-carboxyfluorescein (6FAM) reporter dye and at the 3′-end with a 6-carboxy-N,N,N′,N′-tetramethylrhodamine (TAMRA) quencher dye. When the probe was annealed to the target gene, fluorescence of 6FAM was prevented by the close proximity of TAMRA. The exonuclease activity of Taq polymerase released the dyes from the oligonucleotide probe by displacing the probe from the target sequence resulting in fluorescence excitation in direct proportion to the amount of target message present. Data analysis was performed using the Sequence Detection System software from Applied Biosystems.
Primers and probes were designed using Oligo Primer Analysis Software, Version 5.0 (National Biosciences Inc. (NBI)-Wojciech Rychlik, Cascade, Colo.). Primers were synthesized by Life Technologies (Grand Island, N.Y.) and probes were synthesized by Applied Biosystems. Primer/probe sets were designed from known sequences of rat genes to be analyzed. All target gene values were normalized to a reference gene, constitutively expressed cyclophilin. Primer/probe sets sequences can be found in Table 8
RNA was extracted from frozen (−70° C.) left ventricle (LV) tissue (approximately 10-20 mg) using 1.5 mL RNA-STAT 60 according to manufacturer's instructions (Leedo Medical Laboratories, Inc., Houston, Tex.). Briefly, tissues were homogenized using a tissue homogenizer equipped with a 5 mm probe (Ultra-Turrax T8 Homogenizer, IKA Works, Inc. Wilmington, N.C.). Following homogenization, an equal volume of molecular grade chloroform (Sigma Chemical Co., St. Louis, Mo.) was incubated with periodic mixing for 10 min at room temperature. Samples were centrifuged at 12,000 g for 10 min and RNA was precipitated from the top layer by adding an equal volume of molecular grade isopropanol (Sigma Chemical Co.) followed by an overnight incubation at −80° C.

[2] = tested on: osteopontin; assay: Assay B aldosterone infusion model: osteopontin mRNA in heart by quantitative RT-PCR (Taqman)
Procedure: Assay B: In vivo Aldosterone Infusion Model Male Sprague Dawley rats (n=39; BW=250 g) […] Uni-nephrectomy performed during implantation of mini-pumps […] Aldosterone ([…], sc via aizet minipump) […] 1. […] Sacrifice after 4 weeks. Hearts were harvested and divided by half through a transverse section at the mid-ventricles: The upper half was stored into formalin. The bottom part was snap-frozen in liquid nitrogen for biochemical analysis. Determination of osteopontin and COX-2 was performed by quantitative RT-PCR (Taqman). Osteopontin was also identified in the heart by immunohistochemistry.

[3] = tested on: osteopontin, ED-1, CD-3, ICAM-1, VCAM-1; assay: Assay C: immunohistochemistry of myocardial tissue (osteopontin, ED-1, CD-3, ICAM-1, VCAM-1); conditions: aldosterone+salt treated rats; eplerenone 100 mg/kg/day
Procedure: The procedure of Assay B was expanded upon in a further study. […] Myocardial tissue from animals in each treatment group was examined after 7, 14, or 30 days of treatment. […] Lesions were preceded by the expression and progressive upregulation of proinflammatory molecules.
as §1, §2
Five m sections were deparaffinized in xylene (two, 5-10 min incubations) and rehydrated by 3 min incubations in ethanol as follows: two incubations in 100% ethanol followed by two incubations in 95% alcohol and one incubation in 70% alcohol. Once hydrated, sections were rinsed in tap water for 1 min and distilled water for 1 min. Endogenous peroxide activity was blocked by placing slides in 3.0% H2O2 for 15 min followed by a 5 min rinse in distilled water. Slides were processed for antigen retrieval using citric acid, pH 6.0. […]

Structure (SMILES)	Collagen type-I message [1]	Collagen-I mRNA ([1]; Table 9.14, 7-day protocol, listed as Aldosterone + salt)	Collagen-I mRNA ([1]; 14 days of treatment, relative to cyclophilin expression, listed as Aldosterone + salt)	Collagen-I mRNA ([1]; 30 days of treatment, relative to cyclophilin expression, listed as Aldosterone + salt) [AU]	Collagen-I (collagen type I mRNA) ([1]; mean ± SEM after 14 days of treatment, relative to cyclophilin expression) [AU]	Osteopontin upregulation in myocardium ([2]; aldosterone infused rats (FIG. 30))	Osteopontin relative mRNA expression ([2]; heart, quantitative RT-PCR, aldosterone/salt rats, 4 weeks, eplerenone 100 mpk p.o.)	Collagen-I mRNA, Mean ([1]; group mean, 30 days of treatment) [AU]	Collagen-I mRNA ([1]; 14 days of treatment, relative to cyclophilin expression, listed as Eplerenone + aldosterone + salt)	Collagen-I mRNA ([1]; 30 days of treatment, relative to cyclophilin expression, listed as Eplerenone + aldosterone + salt)	Collagen-I (collagen type I mRNA) ([1]; mean ± SEM after 7 days of treatment, relative to cyclophilin expression) [AU]	Staining in myocardial tissue for marker proteins (immunohistochemistry) [3]
C[C@]12CCC(=O)C=C1CC[C@@H]1[C@@H]2[C@@H](O)C[C@]2(C=O)[C@@H](C(=O)CO)CC[C@@H]12 [aldosterone]	modest increase	0.84 AU and 1.40 AU	0.25 AU and 1.00 AU and 1.20 AU and 1.70 AU and 0.43 AU	2.20	1.33 ± 0.24	–	–	–	–	–	–	–
COC(=O)[C@@H]1CC2=CC(=O)CC[C@]2(C)[C@@]23O[C@@H]2C[C@@]2(C)[C@@H](CC[C@@]24CCC(=O)O4)[C@H]13 [eplerenone, Pregn-4-ene-7,21-dicarboxylic acid, 9,11-epoxy-17-hydroxy-3-oxo-, γ-lactone, methyl ester, (7α, 11α, 17β) -]	modest increase	–	–	–	–	prevention by eplerenone of osteopontin upregulation	2.5±0.6	2.53	0.90 AU and 1.14 AU and 0.50 AU	2.98 AU and 2.90 AU	0.85 ± 0.15	markedly blunted the aldosterone+salt treatment induced staining
